Measured values reported in US20060140994A1, “Application of an antimicrobial agent on an elastomeric article” (priority 2004, published 2006).

Tested on: Staphylococcus aureus (ATCC #27660)
Assay: Rapid Germicidal Time Kill, ASTM protocol 04-123409-106
Format: cell-based
Conditions: for log reduction of organisms: nitrile gloves, versus applied organisms estimated from latex control
Procedure: To test the antimicrobial efficacy of a polyhexamethylene biguanide, such as available commercially under the trademark Cosmosil® CQ from Arch Chemicals, Inc., Norwalk, Conn., we treated nitrile examination gloves according to ASTM protocol 04-123409-106 “Rapid Germicidal Time Kill.” Briefly, about 50 μL of an overnight culture of Staphylococcus aureus (ATCC #27660, 5×10^8CFU/mL) was applied to the glove material. After a total contact time of about 6 minutes the glove fabric was placed into a neutralizing buffer. Surviving organisms were extracted and diluted in Letheen broth. Aliquots were spread plated on Tryptic Soy Agar plates. Plates were incubated for 48 hours at 35° C. Following incubation the surviving organisms were counted and the colony forming units (CFU) were recorded. The reduction (log10) in surviving organisms from test material versus control fabric was calculated:
Log10 CFU/swatch Control−Log10 CFU/swatch Test Article=Log10 Reduction.

polyhexamethylene biguanide
log reduction of Staphylococcus aureus (microtextured nitrile glove, machine applied at 0.03 g/glove): greater than four | log reduction of organisms (hand sprayed with no heat): greater than one | log reduction of organisms (machine sprayed under heated conditions): greater than 5 log
